In brackets after ≈: the same amount, converted by molar mass. Read-outs that look alike come from different tables or passages of the source.
Assays:
Giardia lamblia = assay: in vitro growth inhibitory activity against Giardia lamblia; type: cell-based; details: Giardia duodenalis; concentration required to inhibit growth by 50%
Procedure: 35, pp. 2198-2202 (1991). EC50 values for test compounds, expressed in parts per million (ppm), were calculated from dose response curves and are presented in Table 4. As used herein, the terminology "EC50" means the concentration of test compound required to inhibit growth by 50% are compared to a control lacking the test compound. Metronidazole was included as a standard in the tests for comparative purposes.

Leishmania major = assay: in vitro growth inhibitory activity against L. major promastigotes; type: cell-based
Source text: 35, pp. 2198-2202 (1991).

Entamoeba histolytica = assay: in vitro growth inhibitory activity against E. histolytica; type: cell-based
Source text: 35, pp. 2198-2202 (1991). Metronidazole was included as a standard in the test for comparative purposes.

Tetrahymena pyriformis = assay: in vitro growth inhibitory activity against the ciliate Tetrahymena pyriformis; type: cell-based, Tetrahymena pyriformis (ATCC strain 30005); details: read-out: EC50 Tetrahymena pyriformis
Toxoplasma gondii [1] = assay: growth inhibition of T. gondii in L929 host cells ([3H]-uracil incorporation); type: cell-based; details: Toxoplasma gondii
Toxoplasma gondii [2] = assay: growth inhibition of T. gondii in HFF host cells ([3H]-uracil incorporation); type: cell-based; details: Toxoplasma gondii
[3] = cytotoxicity towards L929 host cells (Cell Titer 96); details: mouse, % Inhibition of host cell growth (values in parenthesis)
[4] = cytotoxicity towards HFF host cells (Cell Titer 96); details: human, % Inhibition of host cell growth (values in parenthesis)
[5] = toxicity towards MDBKF5D2 host cells (MTS); details: bovine, mdbkf5d2 cells, Cytotoxicity (percent toxicity)
[6] = L929, 24 h, L929 host cells, 0.5 μg/ml, 24 hours, read-out: % Inhibition
[7] = L929, 24 h, L929 host cells, 5.0 μg/ml, 24 hours, read-out: % Inhibition
[8] = L929, 48 h, L929 host cells, 0.5 μg/ml, 48 hours, read-out: % Inhibition
[9] = L929, 48 h, L929 host cells, 5.0 μg/ml, 48 hours, read-out: % Inhibition
[10] = L929, 72 h, L929 host cells, 0.5 μg/ml, 72 hours, read-out: % Inhibition
[11] = L929, 72 h, L929 host cells, 5.0 μg/ml, 72 hours, read-out: % Inhibition
[12] = 24 h, HFF host cells, 0.5 μg/ml, 24 hours, read-out: % Inhibition
[13] = 24 h, HFF host cells, 5.0 μg/ml, 24 hours, read-out: % Inhibition
[14] = 48 h, HFF host cells, 0.5 μg/ml, 48 hours, read-out: % Inhibition
[15] = 48 h, HFF host cells, 5.0 μg/ml, 48 hours, read-out: % Inhibition
[16] = 72 h, HFF host cells, 0.5 μg/ml, 72 hours, read-out: % Inhibition
[17] = 72 h, HFF host cells, 5.0 μg/ml, 72 hours, read-out: % Inhibition

CCC(C)(NC(=O)c1cc(Cl)c(N)c(Cl)c1)C(=O)CCl (stereo not shown) [Compound 1]
EC50 (Giardia lamblia): 0.06 µg/mL (≈ 0.178 µM) | EC50 (Leishmania major): 0.2 µg/mL (≈ 0.592 µM) | EC50 (Entamoeba histolytica): 38 µg/mL (≈ 113 µM) | EC50 (Tetrahymena pyriformis; 24 hours, 25° C.): 0.02 µg/mL (≈ 0.0592 µM) | inhibition at 0.5 µg/mL (Toxoplasma gondii [1]; [6]): 7.8% | inhibition at 5 µg/mL (Toxoplasma gondii [1]; [7]): 10.8% | inhibition at 0.5 µg/mL (Toxoplasma gondii [1]; [8]): 80.4% | inhibition at 5 µg/mL (Toxoplasma gondii [1]; [9]): 75.5% | inhibition at 0.5 µg/mL (Toxoplasma gondii [1]; [10]): 95.4% | inhibition at 5 µg/mL (Toxoplasma gondii [1]; [11]): 78.2% | inhibition at 0.5 µg/mL (Toxoplasma gondii [2]; [12]): 47.6% | inhibition at 5 µg/mL (Toxoplasma gondii [2]; [13]): 88% | inhibition at 0.5 µg/mL (Toxoplasma gondii [2]; [14]): 96.1% | inhibition at 5 µg/mL (Toxoplasma gondii [2]; [15]): 99.3% | inhibition at 0.5 µg/mL (Toxoplasma gondii [2]; [16]): 91.3% | inhibition at 5 µg/mL (Toxoplasma gondii [2]; [17]): 99.2% | inhibition at 24 h ([3]; L929, 0.5 μg/ml): 1.5% | inhibition at 48 h ([3]; L929, 0.5 μg/ml): 11.6% | inhibition at 72 h ([3]; L929, 0.5 μg/ml): 31.3% | inhibition at 24 h ([3]; L929, 5.0 μg/ml): 19.7% | inhibition at 48 h ([3]; L929, 5.0 μg/ml): 61.8% | inhibition at 72 h ([3]; L929, 5.0 μg/ml): 81.1% | inhibition at 24 h ([4]; 0.5 μg/ml): 1.6% | inhibition at 48 h ([4]; 0.5 μg/ml): 0% | inhibition at 72 h ([4]; 0.5 μg/ml): 1.4% | inhibition at 24 h ([4]; 5.0 μg/ml): 14.7% | inhibition at 48 h ([4]; 5.0 μg/ml): 13.5% | inhibition at 72 h ([4]; 5.0 μg/ml): 47.6% | cytotoxicity at 48 h, 0.1 µM [5]: 0% | cytotoxicity at 48 h, 1 µM [5]: 0% | cytotoxicity at 48 h, 10 µM [5]: 19.9% | cytotoxicity at 48 h, 100 µM [5]: 35.7%

CCC(C)(NC(=O)c1cc(Cl)c(F)c(Cl)c1)C(=O)CCl (stereo not shown) [Compound 9]
EC50 (Giardia lamblia): 0.03 µg/mL (≈ 0.0881 µM) | EC50 (Leishmania major): 0.1 µg/mL (≈ 0.294 µM) | EC50 (Tetrahymena pyriformis; 24 hours, 25° C.): 0.004 µg/mL (≈ 0.0117 µM) | inhibition at 0.5 µg/mL (Toxoplasma gondii [1]; [6]): 29% | inhibition at 5 µg/mL (Toxoplasma gondii [1]; [7]): 28.2% | inhibition at 0.5 µg/mL (Toxoplasma gondii [1]; [8]): 86.3% | inhibition at 5 µg/mL (Toxoplasma gondii [1]; [9]): 77.3% | inhibition at 0.5 µg/mL (Toxoplasma gondii [1]; [10]): 90.9% | inhibition at 5 µg/mL (Toxoplasma gondii [1]; [11]): 95.6% | inhibition at 0.5 µg/mL (Toxoplasma gondii [2]; [12]): 58.7% | inhibition at 5 µg/mL (Toxoplasma gondii [2]; [13]): 74.3% | inhibition at 0.5 µg/mL (Toxoplasma gondii [2]; [14]): 77.6% | inhibition at 5 µg/mL (Toxoplasma gondii [2]; [15]): 97% | inhibition at 0.5 µg/mL (Toxoplasma gondii [2]; [16]): 0% | inhibition at 5 µg/mL (Toxoplasma gondii [2]; [17]): 96.3% | inhibition at 24 h ([3]; L929, 0.5 μg/ml): 6.3% | inhibition at 48 h ([3]; L929, 0.5 μg/ml): 0% | inhibition at 72 h ([3]; L929, 0.5 μg/ml): 8.5% | inhibition at 24 h ([3]; L929, 5.0 μg/ml): 20.2% | inhibition at 48 h ([3]; L929, 5.0 μg/ml): 65.2% | inhibition at 72 h ([3]; L929, 5.0 μg/ml): 90.4% | inhibition at 24 h ([4]; 0.5 μg/ml): 1.1% | inhibition at 48 h ([4]; 0.5 μg/ml): 1.1% | inhibition at 72 h ([4]; 0.5 μg/ml): 0% | inhibition at 24 h ([4]; 5.0 μg/ml): 2.4% | inhibition at 48 h ([4]; 5.0 μg/ml): 21.3% | inhibition at 72 h ([4]; 5.0 μg/ml): 6.3% | cytotoxicity at 48 h, 0.1 µM [5]: 6.7% | cytotoxicity at 48 h, 1 µM [5]: 0% | cytotoxicity at 48 h, 10 µM [5]: 0% | cytotoxicity at 48 h, 100 µM [5]: 81.4%

CCC(C)(NC(=O)c1cc(Cl)c(C)c(Cl)c1)C(=O)CCl (stereo not shown) [Compound 10]
EC50 (Giardia lamblia): 0.06 µg/mL (≈ 0.178 µM) | EC50 (Leishmania major): 0.2 µg/mL (≈ 0.594 µM) | EC50 (Entamoeba histolytica): 6 µg/mL (≈ 17.8 µM) | EC50 (Tetrahymena pyriformis; 24 h): 0.004 µg/mL (≈ 0.0119 µM) | inhibition at 0.5 µg/mL (Toxoplasma gondii [1]; L929, 24 h): 0% | inhibition at 5 µg/mL (Toxoplasma gondii [1]; L929, 24 h): 20.5% | inhibition at 25 µg/mL (Toxoplasma gondii [1]; L929, 24 h): 19.6% | inhibition at 0.5 µg/mL (Toxoplasma gondii [1]; L929, 48 h): 0% | inhibition at 5 µg/mL (Toxoplasma gondii [1]; L929, 48 h): 80.5% | inhibition at 25 µg/mL (Toxoplasma gondii [1]; L929, 48 h): 86.5% | inhibition at 0.5 µg/mL (Toxoplasma gondii [1]; L929, 72 h): 2.3% | inhibition at 5 µg/mL (Toxoplasma gondii [1]; L929, 72 h): 90.4% | inhibition at 25 µg/mL (Toxoplasma gondii [1]; L929, 72 h): 98% | inhibition at 0.5 µg/mL (Toxoplasma gondii [2]; 24 h): 2.3% | inhibition at 5 µg/mL (Toxoplasma gondii [2]; 24 h): 8.8% | inhibition at 25 µg/mL (Toxoplasma gondii [2]; 24 h): 63.4% | inhibition at 0.5 µg/mL (Toxoplasma gondii [2]; 48 h): 2.1% | inhibition at 5 µg/mL (Toxoplasma gondii [2]; 48 h): 1.4% | inhibition at 25 µg/mL (Toxoplasma gondii [2]; 48 h): 95.7% | inhibition at 0.5 µg/mL (Toxoplasma gondii [2]; 72 h): 6.3% | inhibition at 5 µg/mL (Toxoplasma gondii [2]; 72 h): 0% | inhibition at 25 µg/mL (Toxoplasma gondii [2]; 72 h): 97.3% | inhibition at 24 h ([3]; L929, 0.5 μg/ml): 3.7% | inhibition at 48 h ([3]; L929, 0.5 μg/ml): 0% | inhibition at 72 h ([3]; L929, 0.5 μg/ml): 2.2% | inhibition at 24 h ([3]; L929, 5.0 μg/ml): 2.8% | inhibition at 48 h ([3]; L929, 5.0 μg/ml): 0% | inhibition at 72 h ([3]; L929, 5.0 μg/ml): 3.5% | inhibition at 24 h ([3]; L929, 25.0 μg/ml): 2.2% | inhibition at 48 h ([3]; L929, 25.0 μg/ml): 4.5% | inhibition at 72 h ([3]; L929, 25.0 μg/ml): 7.6% | inhibition at 24 h ([4]; 0.5 μg/ml): 0% | inhibition at 48 h ([4]; 0.5 μg/ml): 0% | inhibition at 72 h ([4]; 0.5 μg/ml): 3% | inhibition at 24 h ([4]; 5.0 μg/ml): 1.4% | inhibition at 48 h ([4]; 5.0 μg/ml): 7.6% | inhibition at 72 h ([4]; 5.0 μg/ml): 3.5% | inhibition at 24 h ([4]; 25.0 μg/ml): 6.7% | inhibition at 48 h ([4]; 25.0 μg/ml): 9.3% | inhibition at 72 h ([4]; 25.0 μg/ml): 4.8%
